Data published in US10770169B2, “Method of providing a treatment to a subject based on a dynamic pathway map” (THE REGENTS OF THE UNIVERSITY OF CALIFORNIA, priority 2010, dated 2020).
Read-outs that look alike come from different tables or passages of the source.

System: panel of 55 breast cancer cell lines
Experiment: Cell growth inhibition assay (Cell Titer Glo, 72 h, 9 doses; GI50, TGI, LC50)
Assay type: cell-based, human
Conditions: Homo sapiens, read-out: GI50 (converted)
[1] = AU565, AU565 cell line, censored GI50 values
[2] = BT-20, BT20 cell line, censored GI50 values
[3] = CAMA-1, CAMA1 cell line, censored GI50 values
[4] = HCC38, HCC38 cell line, censored GI50 values
[5] = HCC70, HCC70 cell line, censored GI50 values
[6] = HCC1143, HCC1143 cell line, censored GI50 values
[7] = HCC1187, HCC1187 cell line, censored GI50 values
[8] = HCC1419, HCC1419 cell line, censored GI50 values
[9] = HCC2185 cell line, censored GI50 values
[10] = MDA-MB-134-VI, MDAMB134VI cell line, censored GI50 values
[11] = MDA-MB-175-VII, MDAMB175VII cell line, censored GI50 values
[12] = MDA-MB-231, MDAMB231 cell line, censored GI50 values
[13] = MDA-MB-361, MDAMB361 cell line, censored GI50 values
[14] = MDA-MB-415, MDAMB415 cell line, censored GI50 values
[15] = MDA-MB-453, MDAMB453 cell line, censored GI50 values
[16] = MDA-MB-468, MDAMB468 cell line, censored GI50 values
[17] = SUM52PE, SUM52PE cell line, censored GI50 values
[18] = SUM149PT, SUM149PT cell line, censored GI50 values
[19] = SUM1315MO2, SUM1315MO2 cell line, censored GI50 values
[20] = SUM-159-PT, SUM159PT cell line, censored GI50 values
[21] = T47D, T47D cell line, censored GI50 values
[22] = ZR-75-1, ZR751 cell line, censored GI50 values

## Cc1cncc2cccc(S(=O)(=O)N3CCCN(C(=O)CN)C[C@@H]3C)c12 [Glycyl-H-1152]
[1]
  GI50: 7.24 µM
AU565, cell line AU565
  GI50: 7.24 µM
[2]
  GI50: 7.08 µM
BT-20, cell line BT20
  GI50: 7.08 µM
BT-474, cell line BT474
  GI50: 66.1 µM
BT-483, cell line BT483
  GI50: 44.7 µM
[3]
  GI50: 8.13 µM
CAMA-1, cell line CAMA1
  GI50: 8.13 µM
[4]
  GI50: 1.02 µM
HCC38, cell line HCC38
  GI50: 1.02 µM
[5]
  GI50: 0.813 µM
HCC70, cell line HCC70
  GI50: 0.813 µM
[6]
  GI50: 15.8 µM
HCC1143, cell line HCC1143
  GI50: 15.8 µM
[7]
  GI50: 0.832 µM
HCC1187, cell line HCC1187
  GI50: 0.832 µM
[8]
  GI50: 17 µM
HCC1419, cell line HCC1419
  GI50: 17 µM
HCC1428, cell line HCC1428
  GI50: 50.1 µM
HCC1500, cell line HCC1500
  GI50: 66.1 µM
HCC1937, cell line HCC1937
  GI50: 66.1 µM
HCC1954, cell line HCC1954
  GI50: 33.1 µM
[9]
  GI50: 2.88 µM
MCF7, cell line MCF7
  GI50: 21.4 µM
[10]
  GI50: 1.17 µM
[11]
  GI50: 33.1 µM
[12]
  GI50: 22.9 µM
MDA-MB-231, cell line MDAMB231
  GI50: 22.9 µM
[13]
  GI50: 33.1 µM
MDA-MB-361, cell line MDAMB361
  GI50: 33.1 µM
[14]
  GI50: 33.1 µM
MDA-MB-415, cell line MDAMB415
  GI50: 33.1 µM
MDA-MB-436, cell line MDAMB436
  GI50: 43.7 µM
[15]
  GI50: 28.2 µM
MDA-MB-453, cell line MDAMB453
  GI50: 28.2 µM
[16]
  GI50: 2.04 µM
MDA-MB-468, cell line MDAMB468
  GI50: 2.04 µM
SK-BR-3, cell line SKBR3
  GI50: 46.8 µM
[17]
  GI50: 9.12 µM
SUM52PE, cell line SUM52PE
  GI50: 9.12 µM
[18]
  GI50: 30.2 µM
SUM149PT, cell line SUM149PT
  GI50: 30.2 µM
[19]
  GI50: 11 µM
[20]
  GI50: 1.74 µM
SUM-159-PT, cell line SUM159PT
  GI50: 1.74 µM
[21]
  GI50: 15.1 µM
T47D, cell line T47D
  GI50: 15.1 µM
UACC-812, UACC812 cell line, censored GI50 values
  GI50: 38 µM
UACC-812, cell line UACC812
  GI50: 38 µM
[22]
  GI50: 3.55 µM
ZR-75-1, cell line ZR751
  GI50: 3.55 µM
ZR-75B, cell line ZR75B
  GI50: 66.1 µM
Cell line HCC2185
  GI50: 2.88 µM
Cell line HCC3153
  GI50: 33.1 µM
Cell line MDAMB134V
  GI50: 1.17 µM
Cell line MDAMB175V
  GI50: 33.1 µM
Cell line SUM1315MO
  GI50: 11 µM

## CCN(CC)CCNC(=O)c1c(C)[nH]c(/C=C2\C(=O)Nc3ccc(F)cc32)c1C [Sunitinib Malate]
600MPE cell line, censored GI50 values
  GI50: 4.27 µM
[1]
  GI50: 3.8 µM
AU565, cell line AU565
  GI50: 3.8 µM
[2]
  GI50: 16.6 µM
BT-20, cell line BT20
  GI50: 16.6 µM
BT-474, BT474 cell line, censored GI50 values
  GI50: 17 µM
BT-474, cell line BT474
  GI50: 17 µM
BT-483, BT483 cell line, censored GI50 values
  GI50: 18.6 µM
BT-483, cell line BT483
  GI50: 18.6 µM
BT-549, BT549 cell line, censored GI50 values
  GI50: 5.13 µM
BT-549, cell line BT549
  GI50: 5.13 µM
[3]
  GI50: 8.71 µM
CAMA-1, cell line CAMA1
  GI50: 8.71 µM
[4]
  GI50: 5.75 µM
HCC38, cell line HCC38
  GI50: 5.75 µM
[5]
  GI50: 2.51 µM
HCC70, cell line HCC70
  GI50: 2.51 µM
HCC202, HCC202 cell line, censored GI50 values
  GI50: 9.33 µM
HCC202, cell line HCC202
  GI50: 9.33 µM
[6]
  GI50: 6.92 µM
HCC1143, cell line HCC1143
  GI50: 6.92 µM
[7]
  GI50: 5.01 µM
HCC1187, cell line HCC1187
  GI50: 5.01 µM
HCC1395, HCC1395 cell line, censored GI50 values
  GI50: 4.68 µM
HCC1395, cell line HCC1395
  GI50: 4.68 µM
[8]
  GI50: 17.8 µM
HCC1419, cell line HCC1419
  GI50: 17.8 µM
HCC1428, HCC1428 cell line, censored GI50 values
  GI50: 5.13 µM
HCC1428, cell line HCC1428
  GI50: 5.13 µM
HCC1500, HCC1500 cell line, censored GI50 values
  GI50: 6.46 µM
HCC1500, cell line HCC1500
  GI50: 6.46 µM
HCC1806, HCC1806 cell line, censored GI50 values
  GI50: 5.37 µM
HCC1806, cell line HCC1806
  GI50: 5.37 µM
HCC1937, HCC1937 cell line, censored GI50 values
  GI50: 6.92 µM
HCC1937, cell line HCC1937
  GI50: 6.92 µM
HCC1954, HCC1954 cell line, censored GI50 values
  GI50: 5.62 µM
HCC1954, cell line HCC1954
  GI50: 5.62 µM
[9]
  GI50: 20.4 µM
HCC3153 cell line, censored GI50 values
  GI50: 11 µM
LY2 cell line, censored GI50 values
  GI50: 6.46 µM
MCF7, MCF7 cell line, censored GI50 values
  GI50: 5.89 µM
MCF7, cell line MCF7
  GI50: 5.89 µM
[10]
  GI50: 10.7 µM
MDA-MB-157, MDAMB157 cell line, censored GI50 values
  GI50: 6.31 µM
[11]
  GI50: 5.5 µM
[12]
  GI50: 3.63 µM
[13]
  GI50: 11.7 µM
[14]
  GI50: 5.62 µM
MDA-MB-436, MDAMB436 cell line, censored GI50 values
  GI50: 11.2 µM
[15]
  GI50: 4.17 µM
[16]
  GI50: 4.47 µM
SK-BR-3, SKBR3 cell line, censored GI50 values
  GI50: 6.76 µM
[17]
  GI50: 1.15 µM
[18]
  GI50: 2.69 µM
SUM185PE, SUM185PE cell line, censored GI50 values
  GI50: 1.05 µM
SUM225CWN, SUM225CWN cell line, censored GI50 values
  GI50: 6.31 µM
[19]
  GI50: 7.41 µM
[20]
  GI50: 1.55 µM
[21]
  GI50: 8.32 µM
UACC-893, UACC893 cell line, censored GI50 values
  GI50: 0.871 µM
[22]
  GI50: 13.2 µM
ZR-75B, ZR75B cell line, censored GI50 values
  GI50: 7.59 µM
Cell line 600MPE
  GI50: 4.27 µM
Cell line HCC2185
  GI50: 20.4 µM
Cell line HCC3153
  GI50: 11 µM
Cell line LY2
  GI50: 6.46 µM
